From patent publication US10045981B2, “Selective kinase inhibitors” (JAKPHARM, LLC, priority 2015, dated 2018)
≈ marks a conversion by molar mass, not a printed value. Like-named read-outs stand apart in the source and are kept apart here. Marks after values point to notes of the source that are not given here.

Legend:
[1] = Mouse Liver Microsomes stability; type: in vitro ADME; conditions: read-out: Mouse Liver Microsomes t½
[2] = Human Plasma protein binding; type: in vitro ADME
EGFR (d746-750/T790M) = EGFR (d746-750/T790M) (Homo sapiens, UniProt P00533, DEL746-750/T790M); assay: Exemplary Kinase Panel Analysis; type: biochemical; conditions: 10 concentrations, 3-fold serial dilutions starting at 5 μM, duplicate
Sequence of EGFR (d746-750/T790M) (P00533 with tags, fused parts or gaps DEL746-750/T790M limits assumed): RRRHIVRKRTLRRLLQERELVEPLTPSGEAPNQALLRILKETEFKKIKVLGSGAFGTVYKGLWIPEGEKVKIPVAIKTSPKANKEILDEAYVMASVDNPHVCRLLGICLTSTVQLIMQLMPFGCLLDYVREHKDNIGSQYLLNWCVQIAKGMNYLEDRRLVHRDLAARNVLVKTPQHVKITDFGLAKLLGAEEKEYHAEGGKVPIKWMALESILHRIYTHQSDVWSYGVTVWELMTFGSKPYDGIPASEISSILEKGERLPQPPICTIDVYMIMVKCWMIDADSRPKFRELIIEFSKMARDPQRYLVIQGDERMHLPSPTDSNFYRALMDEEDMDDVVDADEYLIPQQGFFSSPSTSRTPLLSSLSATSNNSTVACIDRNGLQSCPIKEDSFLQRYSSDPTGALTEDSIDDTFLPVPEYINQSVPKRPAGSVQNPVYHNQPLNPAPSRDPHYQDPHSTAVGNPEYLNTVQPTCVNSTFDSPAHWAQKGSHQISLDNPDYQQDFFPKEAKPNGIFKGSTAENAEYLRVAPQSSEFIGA

CYP3A4 [3] = target: T1, CYP3A4 (Homo sapiens, UniProt P08684); assay: CYP3A4 inhibition testosterone LCMS; type: in vitro ADME; conditions: read-out: CYP3A4 K50 [uM] testosterone LCMS
T1 sequence (P08684 whole entry): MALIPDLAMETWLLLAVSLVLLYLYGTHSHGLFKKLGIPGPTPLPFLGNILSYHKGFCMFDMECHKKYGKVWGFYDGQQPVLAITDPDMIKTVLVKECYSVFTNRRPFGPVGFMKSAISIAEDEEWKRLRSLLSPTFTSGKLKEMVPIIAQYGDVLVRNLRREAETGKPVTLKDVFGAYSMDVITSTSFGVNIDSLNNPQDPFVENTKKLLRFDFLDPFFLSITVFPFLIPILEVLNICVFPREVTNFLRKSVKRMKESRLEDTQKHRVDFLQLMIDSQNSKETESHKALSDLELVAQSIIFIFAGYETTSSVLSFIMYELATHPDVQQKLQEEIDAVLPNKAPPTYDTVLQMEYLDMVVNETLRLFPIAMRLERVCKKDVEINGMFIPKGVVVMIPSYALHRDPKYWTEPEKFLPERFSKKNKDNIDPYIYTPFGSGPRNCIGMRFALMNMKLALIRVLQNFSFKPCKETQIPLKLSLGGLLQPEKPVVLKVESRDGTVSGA

[4] = Brain penetration classification
CYP2D6 = CYP2D6 (Homo sapiens, UniProt P10635); assay: CYP2D6 inhibition LCMS; type: in vitro ADME
Sequence of CYP2D6 (P10635 whole entry): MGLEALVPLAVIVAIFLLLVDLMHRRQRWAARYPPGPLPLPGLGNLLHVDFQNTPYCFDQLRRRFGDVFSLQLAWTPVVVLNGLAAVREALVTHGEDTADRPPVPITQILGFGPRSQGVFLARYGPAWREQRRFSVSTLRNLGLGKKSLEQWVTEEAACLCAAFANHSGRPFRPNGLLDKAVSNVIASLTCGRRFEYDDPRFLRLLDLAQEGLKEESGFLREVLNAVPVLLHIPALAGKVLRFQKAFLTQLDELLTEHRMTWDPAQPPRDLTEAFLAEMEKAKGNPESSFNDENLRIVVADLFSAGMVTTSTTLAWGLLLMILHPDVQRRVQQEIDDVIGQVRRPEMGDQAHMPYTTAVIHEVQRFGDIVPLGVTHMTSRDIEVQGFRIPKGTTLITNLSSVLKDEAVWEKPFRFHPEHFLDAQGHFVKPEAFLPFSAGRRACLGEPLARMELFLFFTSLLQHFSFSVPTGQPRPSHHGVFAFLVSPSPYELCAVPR

CYP2C19 = CYP2C19 (Homo sapiens, UniProt P33261); assay: CYP2C19 inhibition LCMS; type: in vitro ADME
Sequence of CYP2C19 (P33261 whole entry): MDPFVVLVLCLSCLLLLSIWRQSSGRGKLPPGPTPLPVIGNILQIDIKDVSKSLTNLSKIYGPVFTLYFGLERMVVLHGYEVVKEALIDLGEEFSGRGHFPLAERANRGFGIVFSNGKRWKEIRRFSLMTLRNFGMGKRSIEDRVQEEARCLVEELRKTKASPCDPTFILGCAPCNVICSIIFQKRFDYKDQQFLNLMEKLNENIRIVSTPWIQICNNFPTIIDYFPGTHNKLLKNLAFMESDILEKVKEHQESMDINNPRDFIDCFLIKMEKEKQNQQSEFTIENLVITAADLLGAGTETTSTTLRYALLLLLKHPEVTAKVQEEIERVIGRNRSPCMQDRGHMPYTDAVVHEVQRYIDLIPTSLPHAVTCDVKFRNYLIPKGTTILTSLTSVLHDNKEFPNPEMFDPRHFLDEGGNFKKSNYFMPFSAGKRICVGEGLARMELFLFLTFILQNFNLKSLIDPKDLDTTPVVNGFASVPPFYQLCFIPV

STAT5 = STAT5 inhibition IC50; type: cell-based
[5] = Cytotoxicity Screening L929 Fibroblasts; type: cell-based; conditions: mouse, read-out: 50% Maximal Effect Concentration (AC50)
Text: (§1) The cytotoxicity screening panel included cell count, nuclear size, DNA structure, cell membrane permeability, mitochondrial mass, mitochondrial membrane potential, and cytochrome C release.

L929 Fibroblasts = assay: Cytotoxicity Screening L929 Fibroblasts; type: cell-based
Text: as §1

CK1g2 = CK1g2 (Homo sapiens, UniProt P78368); assay: Exemplary Kinase Panel Analysis; type: biochemical; conditions: 10 concentrations, 3-fold serial dilutions starting at 5 μM, duplicate
Sequence of CK1g2 (P78368 whole entry, species assumed): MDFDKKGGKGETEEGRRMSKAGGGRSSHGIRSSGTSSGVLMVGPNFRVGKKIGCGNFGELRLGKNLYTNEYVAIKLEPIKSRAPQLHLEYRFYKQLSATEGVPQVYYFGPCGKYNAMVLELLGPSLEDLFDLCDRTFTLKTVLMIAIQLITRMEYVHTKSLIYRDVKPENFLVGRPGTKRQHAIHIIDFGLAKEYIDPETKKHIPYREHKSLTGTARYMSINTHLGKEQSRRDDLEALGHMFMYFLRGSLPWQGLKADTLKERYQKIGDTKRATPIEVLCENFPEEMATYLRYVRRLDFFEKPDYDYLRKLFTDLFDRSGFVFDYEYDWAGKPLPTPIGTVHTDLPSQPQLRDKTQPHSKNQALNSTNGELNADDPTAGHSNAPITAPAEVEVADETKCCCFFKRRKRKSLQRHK

[6] = Solubility in aqueous buffer; type: physicochemical; conditions: aqueous buffer, pH 7.4, aqueous buffer, aqueous buffer
hERG = target: T2, hERG (Homo sapiens, UniProt Q12809); assay: hERG K+ channel current in HEK293 cells; type: cell-based
T2 construct: expressed in transfected cells; host or cells: HEK293
T2 sequence (Q12809 whole entry): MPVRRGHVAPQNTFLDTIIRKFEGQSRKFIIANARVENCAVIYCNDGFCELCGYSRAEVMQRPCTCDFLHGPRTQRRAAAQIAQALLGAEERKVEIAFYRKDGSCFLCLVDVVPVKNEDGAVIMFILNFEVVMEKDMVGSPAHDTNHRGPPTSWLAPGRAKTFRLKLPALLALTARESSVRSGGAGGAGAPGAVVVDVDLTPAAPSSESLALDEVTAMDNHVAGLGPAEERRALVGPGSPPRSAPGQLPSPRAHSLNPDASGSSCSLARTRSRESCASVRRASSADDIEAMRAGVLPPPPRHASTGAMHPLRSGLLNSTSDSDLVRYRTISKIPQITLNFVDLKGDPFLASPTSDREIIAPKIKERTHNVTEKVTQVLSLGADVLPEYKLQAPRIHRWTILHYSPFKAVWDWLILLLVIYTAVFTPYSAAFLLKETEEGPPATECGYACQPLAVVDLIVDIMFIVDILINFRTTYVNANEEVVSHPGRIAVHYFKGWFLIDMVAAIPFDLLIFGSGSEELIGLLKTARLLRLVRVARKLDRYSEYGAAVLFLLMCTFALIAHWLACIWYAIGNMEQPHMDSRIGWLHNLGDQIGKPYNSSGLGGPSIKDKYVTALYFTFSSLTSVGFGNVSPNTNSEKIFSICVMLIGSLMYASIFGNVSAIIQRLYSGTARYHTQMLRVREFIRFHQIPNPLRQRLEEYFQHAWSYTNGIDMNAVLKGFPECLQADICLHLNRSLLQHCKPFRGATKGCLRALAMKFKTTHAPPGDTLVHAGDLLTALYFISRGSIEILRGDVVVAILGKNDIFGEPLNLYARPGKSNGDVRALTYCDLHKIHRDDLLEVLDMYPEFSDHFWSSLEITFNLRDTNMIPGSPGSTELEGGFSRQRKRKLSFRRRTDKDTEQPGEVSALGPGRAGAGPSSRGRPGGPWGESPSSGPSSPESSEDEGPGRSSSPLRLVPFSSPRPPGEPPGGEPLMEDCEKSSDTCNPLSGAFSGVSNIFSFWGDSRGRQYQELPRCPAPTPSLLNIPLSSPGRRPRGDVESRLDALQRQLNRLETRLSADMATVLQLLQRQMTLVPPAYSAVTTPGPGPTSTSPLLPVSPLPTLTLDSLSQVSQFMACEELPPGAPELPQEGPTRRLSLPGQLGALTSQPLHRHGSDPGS

[7] = Human Liver Microsomes stability; type: in vitro ADME; conditions: read-out: Human Liver Microsomes t½
[8] = Mouse Plasma protein binding; type: in vitro ADME
EGFR (d752-759) = EGFR (d752-759) (Homo sapiens, UniProt P00533, DEL752-759); assay: Exemplary Kinase Panel Analysis; type: biochemical; conditions: 10 concentrations, 3-fold serial dilutions starting at 5 μM, duplicate
Sequence of EGFR (d752-759) (P00533 with tags, fused parts or gaps DEL752-759 limits assumed): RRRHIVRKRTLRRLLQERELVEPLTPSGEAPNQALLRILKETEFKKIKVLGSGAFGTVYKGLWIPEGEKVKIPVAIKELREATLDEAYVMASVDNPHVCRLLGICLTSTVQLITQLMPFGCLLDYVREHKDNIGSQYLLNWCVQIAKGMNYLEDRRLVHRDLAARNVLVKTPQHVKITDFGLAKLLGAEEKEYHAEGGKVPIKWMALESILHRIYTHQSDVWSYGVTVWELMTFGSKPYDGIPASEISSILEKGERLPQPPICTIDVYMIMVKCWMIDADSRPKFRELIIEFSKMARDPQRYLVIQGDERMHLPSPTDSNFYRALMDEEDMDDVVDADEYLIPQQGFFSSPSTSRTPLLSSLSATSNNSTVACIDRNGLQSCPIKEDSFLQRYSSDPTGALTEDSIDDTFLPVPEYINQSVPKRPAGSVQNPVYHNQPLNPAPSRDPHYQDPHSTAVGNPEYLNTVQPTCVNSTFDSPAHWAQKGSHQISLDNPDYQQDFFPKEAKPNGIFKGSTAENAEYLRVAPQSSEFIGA

EGFR (L858R, T790M) = EGFR (L858R, T790M) (Homo sapiens, UniProt P00533, L858R/T790M); assay: Exemplary Kinase Panel Analysis; type: biochemical; conditions: 10 concentrations, 3-fold serial dilutions starting at 5 μM, duplicate
CYP3A4 [9] = target: T1, CYP3A4; assay: CYP3A4 inhibition midazolam LCMS; type: in vitro ADME
JAK3 = target: T3, JAK3 (Homo sapiens, UniProt P52333); assay: JAK3 biochemical IC50; conditions: for JAK3 selectivity vs. STAT5: STAT5 IC50 relative to JAK3 IC50; for selectivity for JAK3 compared to JAK1, JAK2, and TYK2 (in words): two independent analyses
T3 sequence (P52333 1-1124): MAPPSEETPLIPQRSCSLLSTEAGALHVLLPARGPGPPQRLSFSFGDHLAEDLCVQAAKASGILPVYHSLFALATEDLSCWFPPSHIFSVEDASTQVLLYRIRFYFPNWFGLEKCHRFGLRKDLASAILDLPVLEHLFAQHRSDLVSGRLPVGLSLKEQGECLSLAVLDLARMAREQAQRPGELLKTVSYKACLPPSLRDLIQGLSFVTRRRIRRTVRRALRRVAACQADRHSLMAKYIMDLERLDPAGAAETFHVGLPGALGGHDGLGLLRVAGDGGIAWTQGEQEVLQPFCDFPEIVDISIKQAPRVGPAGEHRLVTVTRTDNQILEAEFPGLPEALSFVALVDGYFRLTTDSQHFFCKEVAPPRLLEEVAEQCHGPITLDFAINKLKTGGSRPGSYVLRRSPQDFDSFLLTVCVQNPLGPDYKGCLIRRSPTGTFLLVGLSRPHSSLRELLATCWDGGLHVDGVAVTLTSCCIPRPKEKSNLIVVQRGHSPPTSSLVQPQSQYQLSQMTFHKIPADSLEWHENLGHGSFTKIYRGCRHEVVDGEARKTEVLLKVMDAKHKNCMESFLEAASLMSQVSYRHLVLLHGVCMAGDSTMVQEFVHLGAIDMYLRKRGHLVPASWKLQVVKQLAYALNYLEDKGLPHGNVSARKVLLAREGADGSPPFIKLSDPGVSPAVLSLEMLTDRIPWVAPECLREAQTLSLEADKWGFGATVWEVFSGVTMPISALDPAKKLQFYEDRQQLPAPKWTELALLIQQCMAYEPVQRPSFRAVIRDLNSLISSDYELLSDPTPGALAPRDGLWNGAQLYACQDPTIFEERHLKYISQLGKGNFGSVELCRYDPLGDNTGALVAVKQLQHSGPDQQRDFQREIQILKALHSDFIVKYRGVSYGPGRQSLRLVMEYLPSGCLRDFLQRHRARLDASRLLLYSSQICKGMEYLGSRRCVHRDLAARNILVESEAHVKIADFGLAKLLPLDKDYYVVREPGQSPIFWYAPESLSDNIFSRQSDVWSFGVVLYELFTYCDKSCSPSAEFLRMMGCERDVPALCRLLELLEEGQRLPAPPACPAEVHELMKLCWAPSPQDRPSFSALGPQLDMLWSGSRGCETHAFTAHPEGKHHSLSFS

EGFR (G719C) = EGFR (G719C) (Homo sapiens, UniProt P00533, G719C); assay: Exemplary Kinase Panel Analysis; type: biochemical; conditions: 10 concentrations, 3-fold serial dilutions starting at 5 μM, duplicate
Protocol: Kinase Panel: These compounds were tested against 439 kinases. […]. […] The results are presented in Table 2 below, where empty cells indicate no inhibition or compound activity that could not be fit to an IC50 curve.

[10] = Original analysis, read-out: STAT5 IC50 (uM) Original
[11] = Table 3, first session (before /), read-out: STATS inhibition IC50
[12] = Table 3, second session (after /), read-out: STATS inhibition IC50
[13] = re-test, read-out: STAT5 IC50 (uM) re-test
[14] = pH 7.4, Original, read-out: Solubility pH 7.4 (uM) Original
[15] = pH 7.4, Re-test, read-out: Solubility pH 7.4 (uM) Re-test
[16] = pH 7.4, Table 3, first session (before /), read-out: Solubility, pH 7.4
[17] = pH 7.4, Table 3, second session (after /), read-out: Solubility, pH 7.4
[18] = Original analysis, read-out: JAK3 IC50 (uM) Original
[19] = Table 3, first session (before /), read-out: JAK3 biochemical IC50
[20] = Table 3, second session (after /), read-out: JAK3 biochemical IC50
[21] = re-test, read-out: JAK3 IC50 (uM) re-test

Row | SMILES | half-life ([1]; first session (before /)) | half-life ([1]; second session (after /)) | fraction unbound [2] | IC50 (EGFR (d746-750/T790M)) | IC50 (CYP3A4 [3]; first session (before /)) | IC50 (CYP3A4 [3]; second session (after /)) | Brain penetration classification [4] | IC50 (CYP2D6; first session (before /)) | IC50 (CYP2D6; second session (after /)) | IC50 (CYP2C19; first session (before /)) | IC50 (CYP2C19; second session (after /)) | IC50 (STAT5; [10]) | IC50 (STAT5; [11]) | IC50 (STAT5; [12]) | IC50 (STAT5; [13]) | AC50 [5] | Minimal Effective Concentration (MEC, uM) (L929 Fibroblasts) | IC50 (CK1g2) | solubility [6, 14] | solubility [6, 15] | further results
1 | C=CC(=O)Nc1cc(NS(C)(=O)=O)cc(-c2cnc3ccccc3n2)c1 [Compound 3] | 25 min | 84 min | 0.054 | 996 nM | 89.7 µM | 51 µM | Low | > 100 µM | > 100 µM | > 100 µM | 59 µM | 7.5 µM | 7.5 µM | 7.4 µM | 7.4 µM | 20000 nM | 10 µM | 33.3 nM | 34 µM (≈ 12.5 µg/mL) | 3 µM (≈ 1.11 µg/mL) | solubility [6, 16]: 34 µM (≈ 12.5 µg/mL); solubility [6, 17]: 3 µM (≈ 1.11 µg/mL); IC50 (hERG): > 1000 nM; half-life ([7]; first session (before /)): 58 min; half-life ([7]; second session (after /)): 60 min; fraction unbound [8]: 0.147; IC50 (EGFR (d752-759)): 3180 nM; IC50 (EGFR (L858R, T790M)): 1120 nM; IC50 (CYP3A4 [9]; first session (before /)): > 100 µM; IC50 (CYP3A4 [9]; second session (after /)): > 100 µM; IC50 (JAK3; [18]): 0.016 µM; JAK3 selectivity vs. STAT5 (JAK3): (382X)*; IC50 (JAK3; [19]): 0.016 µM; IC50 (JAK3; [20]): 0.023 µM; IC50 (JAK3; [21]): 0.023 µM; selectivity for JAK3 compared to JAK1, JAK2, and TYK2 (in words) (JAK3): highly selective for JAK3
2 | C=CC(=O)Nc1cc(CC(=O)OC)cc(-c2cnc3ccccc3n2)c1 [Compound 2] | 3.3 min | 6 min | 0.123 | 299 nM | > 100 µM | > 100 µM | Moderate | > 100 µM | > 100 µM | > 100 µM | 95 µM | 0.8 µM | 0.8 µM | 2.9 µM | 2.9 µM | 18000 nM | 2 µM | 9.86 nM | 9 µM (≈ 3.13 µg/mL) | 1 µM (≈ 0.347 µg/mL) | IC50 (EGFR (G719C)): 423 nM; solubility [6, 16]: 9 µM (≈ 3.13 µg/mL); solubility [6, 17]: 1 µM (≈ 0.347 µg/mL); IC50 (hERG): > 10000 nM; half-life ([7]; first session (before /)): > 1000 min; half-life ([7]; second session (after /)): 5.5 min; IC50 (EGFR (d752-759)): 1030 nM; IC50 (EGFR (L858R, T790M)): 653 nM; IC50 (CYP3A4 [9]; first session (before /)): > 100 µM; IC50 (CYP3A4 [9]; second session (after /)): > 100 µM; IC50 (JAK3; [18]): 0.013 µM; JAK3 selectivity vs. STAT5 (JAK3): (370X)*; IC50 (JAK3; [19]): 0.015 µM; IC50 (JAK3; [20]): 0.007 µM; IC50 (JAK3; [21]): 0.007 µM; selectivity for JAK3 compared to JAK1, JAK2, and TYK2 (in words) (JAK3): highly selective for JAK3
